Calls of active or inactive are those of the source. No cut-off for these calls is given here.
Legend:
[1] = target: T1, von Hippel-Lindau disease tumor suppressor/Androgen receptor (Homo sapiens) (UniProt P10275+P40337); experiment: PROTAC activity at VHL/HiBit tagged AR in human LNCaP cells assessed as degradation of AR preincubated with epoxomicin for 3 hrs followed by compound addition and measured after 18 hrs by Nano-Glo HiBiT assay; type: cell-based
[2] = target: T1, von Hippel-Lindau disease tumor suppressor/Androgen receptor (Homo sapiens); experiment: PROTAC activity at VHL/HiBit tagged AR in human LNCaP cells assessed as degradation of AR preincubated with MLN4924 for 3 hrs followed by compound addition and measured after 18 hrs by Nano-Glo HiBiT assay; type: cell-based
LNCaP = experiment: Cytotoxicity against human LNCaP cells harbouring HiBit tagged AR assessed as reduction in cell viability measured after 16 hrs by cell titer glo assay; type: functional, cell-based
[3] = target: T2, von Hippel-Lindau disease tumor suppressor/Bromodomain-containing protein 4 (Homo sapiens, UniProt O60885+P40337); experiment: PROTAC activity at HiBit tagged BRD4/VHL E3 ligase in human HEK293 cells assessed as degradation of BRD4 preincubated with epoxomicin for 3 hrs followed by compound addition and measured after 18 hrs by Nano-Glo HiBiT assay; type: cell-based
HEK293 = experiment: Cytotoxicity against human HEK293 cells harbouring HiBit tagged BRD4 assessed as reduction in cell viability measured after 18 hrs by cell titer glo assay; type: toxicity, cell-based; conditions: hek293, 18 h
[4] = target: T2, von Hippel-Lindau disease tumor suppressor/Bromodomain-containing protein 4; experiment: PROTAC activity at HiBit tagged BRD4/VHL E3 ligase in human HEK293 cells assessed as degradation of BRD4 incubated for 18 hrs by Nano-Glo HiBiT assay; type: cell-based
[5] = target: T2, von Hippel-Lindau disease tumor suppressor/Bromodomain-containing protein 4; experiment: PROTAC activity at HiBit tagged BRD4/VHL E3 ligase in human HEK293 cells assessed as degradation of BRD4 preincubated with MLN4924 for 3 hrs followed by compound addition and measured after 18 hrs by Nano-Glo HiBiT assay; type: cell-based
[6] = target: T3, von Hippel-Lindau disease tumor suppressor (Homo sapiens, UniProt P40337); experiment: Inhibition of VHL in HEK293T cells assessed as target engagement incubated for 2 hrs by Streptavidin-pull down blotting assay; type: cell-based; conditions: dose 1-100 µM
[7] = target: T3, von Hippel-Lindau disease tumor suppressor; experiment: Inhibition of N-terminal 6his tagged human VHL (1 to 213 residues) expressed in HEK293 cells using NanoBRET NanoGlo substrate by NanoBRET assay; type: cell-based

| Structure (SMILES) | Activity [1] | Activity [2] | Activity (LNCaP) | also measured |
| --- | --- | --- | --- | --- |
| Cc1cc([C@H](C(=O)N2C[C@H](S(=O)(=O)F)C[C@H]2C(=O)N[C@@H](CC(=O)N2CCC(C#Cc3ccc(C(=O)N[C@H]4C(C)(C)[C@H](Oc5ccc(C#N)c(Cl)c5)C4(C)C)cc3)CC2)c2ccc(-c3scnc3C)cc2)C(C)C)on1 | inactive | inactive | inactive | – |
| COCC(COC)n1c(-c2cc(C)c(=O)n(C)c2)nc2cc(C3CCN(C(=O)COCCOCCOCCNC(=O)C[C@H](NC(=O)[C@@H]4C[C@@H](S(=O)(=O)F)CN4C(=O)[C@@H](c4cc(C)no4)C(C)C)c4ccc(-c5scnc5C)cc4)CC3)ccc21 | – | – | – | Activity [3]: inactive; Activity (HEK293): Non-Toxic; EC50 [4]: 17.2 µM; Activity [5]: inactive |
| Cc1cc([C@H](C(=O)N2C[C@H](S(=O)(=O)F)C[C@H]2C(=O)N[C@@H](CC(=O)NCCOCCOCCOCCNC(=O)CCCC[C@H]2SC[C@@H]3NC(=O)N[C@@H]32)c2ccc(-c3scnc3C)cc2)C(C)C)on1 | – | – | – | inhibition [6]: Dose-Dependent Effect |
| Cc1cc([C@H](C(=O)N2C[C@H](S(=O)(=O)F)C[C@H]2C(=O)N[C@@H](CC(=O)N2CCC(C#Cc3ccc(C(=O)N[C@H]4C(C)(C)[C@H](Oc5ccc(C#N)c(C(F)(F)F)c5)C4(C)C)cc3)CC2)c2ccc(-c3scnc3C)cc2)C(C)C)on1 | inactive | inactive | inactive | – |
| CC(=O)N[C@H](C(=O)N1C[C@H](S(=O)(=O)F)C[C@H]1C(=O)NCc1ccc(-c2scnc2C)cc1)C(C)(C)C | – | – | – | IC50 [7]: > 100 µM |

Reference: ChEMBL document CHEMBL5620436, “Structure-Guided Design and Optimization of Covalent VHL-Targeted Sulfonyl Fluoride PROTACs” (J Med Chem, 2024)
